ChEMBL document CHEMBL2057194, “Structure-activity relationships, ligand efficiency, and lipophilic efficiency profiles of benzophenone-type inhibitors of the multidrug transporter P-glycoprotein” (J Med Chem, 2012)

Molecular target: ATP-dependent translocase ABCB1 (Homo sapiens, UniProt P08183)
Test: Inhibition of P-glycoprotein-mediated daunorubicin efflux from human CCRF-CEM/VCR1000 cells after 240 secs by FACS flow cytometric analysis

Sequence of ATP-dependent translocase ABCB1 (P08183 whole entry): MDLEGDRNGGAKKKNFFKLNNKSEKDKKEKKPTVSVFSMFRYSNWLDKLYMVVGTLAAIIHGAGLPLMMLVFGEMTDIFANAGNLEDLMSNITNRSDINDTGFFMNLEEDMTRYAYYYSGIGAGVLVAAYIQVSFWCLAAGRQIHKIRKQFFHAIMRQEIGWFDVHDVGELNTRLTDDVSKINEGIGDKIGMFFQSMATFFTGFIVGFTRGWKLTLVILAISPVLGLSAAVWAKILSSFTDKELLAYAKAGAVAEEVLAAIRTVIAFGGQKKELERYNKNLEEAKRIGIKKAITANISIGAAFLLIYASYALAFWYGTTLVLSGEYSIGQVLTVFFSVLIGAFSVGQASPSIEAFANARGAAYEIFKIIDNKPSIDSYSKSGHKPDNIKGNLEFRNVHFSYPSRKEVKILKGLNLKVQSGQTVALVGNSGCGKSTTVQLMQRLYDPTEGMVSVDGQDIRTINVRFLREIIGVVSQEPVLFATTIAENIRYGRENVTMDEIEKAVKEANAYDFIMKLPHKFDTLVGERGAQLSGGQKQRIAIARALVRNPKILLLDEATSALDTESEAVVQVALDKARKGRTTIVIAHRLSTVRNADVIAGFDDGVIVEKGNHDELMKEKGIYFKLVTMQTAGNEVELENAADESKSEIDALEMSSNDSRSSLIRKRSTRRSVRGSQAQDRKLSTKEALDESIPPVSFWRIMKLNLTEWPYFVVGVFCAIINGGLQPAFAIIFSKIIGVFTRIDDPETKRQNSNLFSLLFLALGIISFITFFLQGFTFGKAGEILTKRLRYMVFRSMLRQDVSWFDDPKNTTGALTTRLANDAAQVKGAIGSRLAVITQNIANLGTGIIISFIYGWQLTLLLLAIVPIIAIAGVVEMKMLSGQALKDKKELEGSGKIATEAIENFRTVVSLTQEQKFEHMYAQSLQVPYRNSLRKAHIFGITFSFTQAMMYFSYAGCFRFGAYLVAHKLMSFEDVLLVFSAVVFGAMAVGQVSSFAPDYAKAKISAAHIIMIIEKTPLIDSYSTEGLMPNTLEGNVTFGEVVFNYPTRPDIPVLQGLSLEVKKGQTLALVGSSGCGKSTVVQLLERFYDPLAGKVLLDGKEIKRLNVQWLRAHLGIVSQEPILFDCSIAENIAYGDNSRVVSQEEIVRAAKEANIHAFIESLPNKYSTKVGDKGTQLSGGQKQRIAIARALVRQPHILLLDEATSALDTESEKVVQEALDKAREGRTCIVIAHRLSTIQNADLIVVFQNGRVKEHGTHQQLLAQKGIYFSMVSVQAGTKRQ

Row | Structure (SMILES) | IC50 (read-out: IC50) [nM] | IC50 (read-out: pIC50 (converted)) [nM]
1 | O=C(c1ccccc1)c1ccc(OCC(O)CN2CCOCC2)cc1 (configuration not stated) | 5320 | –
2 | CCOC/C=C/c1ccc(-c2nc(-c3ccc(NC(C)C)cc3)c(-c3ccc(NC(C)C)cc3)[nH]2)cc1 | – | 31.6
3 | O=C(c1ccccc1)c1ccccc1OCC(O)CN1CCC(O)(c2ccccc2)CC1 (configuration not stated) | 310 | –
4 | O=C(CCc1ccccc1)c1ccccc1OCC(O)CN1CCC(O)(c2ccccc2)CC1 (configuration not stated) | – | 57.5
5 | O=C(c1ccccc1)c1ccccc1OCC(O)CN1CCCCC1 (configuration not stated) | 1200 | –
6 | CCCNCC(O)COc1ccccc1C(=O)c1ccc(C)cc1 (configuration not stated) | 1210 | –
7 | COc1cc2c(cc1OC)CN(CCc1ccc(NC(=O)c3cc(OC)c(OC)cc3NC(=O)c3cnc4ccccc4c3)cc1)CC2 | – | 33.1
8 | O=C(c1ccccc1)c1ccc(OCC(O)CN2CCCCC2)cc1 (configuration not stated) | 2180 | –
9 | O=C(c1ccccc1)c1ccccc1OCC(O)CN1CCOCC1 (configuration not stated) | 13400 | –
10 | O=C(CCc1ccccc1)c1ccccc1OCC(O)CN1CCCCC1 (configuration not stated) | – | 603
11 | CC(=O)c1cc(C)ccc1OCC(O)CN1CCN(CC(O)COc2ccccc2C(=O)c2ccccc2)CC1 (configuration not stated) | 9480 | –
12 | O=C(c1ccccc1)c1ccccc1OCC(O)CN1CCN(CC(O)COc2ccccc2C(=O)c2ccccc2)CC1 (configuration not stated) | 50 | –

Further lines, with some results ahead:

Row | IC50 (read-out: IC50) [nM] | Structure (SMILES) | IC50 (read-out: pIC50 (converted)) [nM]
13 | 580 | O=C(c1ccccc1)c1cccc(OCC(O)CN2CCN(c3ccc(F)cc3)CC2)c1 (configuration not stated) | –
14 | 170 | Cc1cccc(N2CCN(CC(O)COc3cccc(C(=O)c4ccccc4)c3)CC2)c1C (configuration not stated) | –
15 | 200 | Cc1ccccc1N1CCN(CC(O)COc2cccc(C(=O)c3ccccc3)c2)CC1 (configuration not stated) | –
16 | 500 | Cc1ccccc1N1CCN(CC(O)COc2ccc(C(=O)c3ccccc3)cc2)CC1 (configuration not stated) | –
17 | 650 | Cc1cccc(N2CCN(CC(O)COc3ccc(C(=O)c4ccccc4)cc3)CC2)c1C (configuration not stated) | –
18 | 970 | O=C(c1ccccc1)c1ccc(OCC(O)CN2CCN(c3ccc(F)cc3)CC2)cc1 (configuration not stated) | –
19 | 3550 | O=C(c1ccccc1)c1cccc(OCC(O)CN2CCCCC2)c1 (configuration not stated) | –
20 | 480 | Cc1ccc(NC(=O)N2CCN(CC(O)COc3ccccc3C(=O)c3ccccc3)CC2)cc1 (configuration not stated) | –
21 | 150 | O=C(c1ccccc1)c1ccccc1OCC(O)CN1CCN(c2ccc(F)cc2)CC1 (configuration not stated) | –
22 | 380 | Cc1ccc(NC(=S)N2CCN(CC(O)COc3ccccc3C(=O)c3ccccc3)CC2)cc1 (configuration not stated) | –
